Experimental findings from patent US20110105393A1, “METHODS FOR PROMOTING STEM CELL PROLIFERATION AND SURVIVAL” (priority 2007, published 2011) are described below.

The assay concerns Notch receptor. Description: Notch receptor cleavage (activation) in NSC cultures. The assay is classed as cell-based, mouse. The protocol:
Cell culture: E13.5 cortical embryonic mouse CNS stem cells were grown as previously described (Johe, et al., Genes Dev 10, 3129-40, 1996). Cells were expanded in serum-free DMEM/F12 medium with N2 supplement and FGF2 (20 ng/ml) for 5 days under 5% oxygen conditions and were re-plated fresh or from frozen stocks at 1,000-10,000 cells per cm^2. FGF2 was included throughout the studies, unless otherwise stated. Adult rat (3-6 months old) or adult mouse (2-4 months old) SVZ NSC cultures were grown in the same medium as the fetal cultures.
Pharmacological treatments: Unless otherwise stated, the following concentrations were used: Dll4 and Ang-2 (in vitro, 500 ng/ml; in vivo 12.5 μg as a single injection), FGF2 (in vitro, 20 ng/ml), JAK inhibitor (in vitro, 200 nM; in vivo, 250 ng as a single injection), insulin (in vitro, 25 μg/ml; in vivo, 40 μg as a single injection), DAPT (1 μM), Fluorogold (0.5 μg). For the survival assays, compounds were added daily and Notch ligands every 2 days for the duration of the experiment. For the effects of kinase inhibitors on Notch activation, cells were pre-incubated for 1 h prior to Notch activation.
It was previously shown that in NSCs Notch activation leads to rapid phosphorylation of Akt (Androutsellis-Theotokis, A. et al., Nature 442, 823-6, 2006), a mediator of insulin signalling (Cantley, Science 296, 1655-7, 2002). […] Activation of the Notch receptor by addition of insulin or Dll4 was inhibited by DAPT, a γ-secretase inhibitor that blocks Notch cleavage. […] Insulin maintained STAT3-Ser727 phosphorylation levels, and acutely (1-h) induced it following a 16-h insulin withdrawal phase (FIG. 1c).

In the case of “insulin: insulin (Sigma, 19278), growth factor”, the Notch activation result (acute (1 h) treatment after insulin withdrawal for 2 days) is given as “induced Notch activation”. For the same substance, the “cleavage (activation) of the Notch receptor” value (treatment of NSC cultures) is recorded as “induced cleavage”.
